From US9708334B2, “Substituted 2,4,5,6-tetrahydropyrrolo[3,4-c]pyrazole and 4,5,6,7-tetrahydro-2H-pyrazolo[4,3-c]pyridine compounds as GlyT1 inhibitors” (DART NEUROSCIENCE (CAYMAN) LTD., priority 2014, dated 2017)

What follows are compounds tested against T1, GlyT1 (Homo sapiens, UniProt P48067) (assay: Glycine Transporter 1 (GlyT1) uptake assay, scintillation proximity assay of [14C]-glycine uptake). Settings: SPA, four parameter logistic fit, read-out: GlyT1 (pIC50) (converted).
T1 construct: expressed in transfected cells
T1 sequence (P48067 1-706): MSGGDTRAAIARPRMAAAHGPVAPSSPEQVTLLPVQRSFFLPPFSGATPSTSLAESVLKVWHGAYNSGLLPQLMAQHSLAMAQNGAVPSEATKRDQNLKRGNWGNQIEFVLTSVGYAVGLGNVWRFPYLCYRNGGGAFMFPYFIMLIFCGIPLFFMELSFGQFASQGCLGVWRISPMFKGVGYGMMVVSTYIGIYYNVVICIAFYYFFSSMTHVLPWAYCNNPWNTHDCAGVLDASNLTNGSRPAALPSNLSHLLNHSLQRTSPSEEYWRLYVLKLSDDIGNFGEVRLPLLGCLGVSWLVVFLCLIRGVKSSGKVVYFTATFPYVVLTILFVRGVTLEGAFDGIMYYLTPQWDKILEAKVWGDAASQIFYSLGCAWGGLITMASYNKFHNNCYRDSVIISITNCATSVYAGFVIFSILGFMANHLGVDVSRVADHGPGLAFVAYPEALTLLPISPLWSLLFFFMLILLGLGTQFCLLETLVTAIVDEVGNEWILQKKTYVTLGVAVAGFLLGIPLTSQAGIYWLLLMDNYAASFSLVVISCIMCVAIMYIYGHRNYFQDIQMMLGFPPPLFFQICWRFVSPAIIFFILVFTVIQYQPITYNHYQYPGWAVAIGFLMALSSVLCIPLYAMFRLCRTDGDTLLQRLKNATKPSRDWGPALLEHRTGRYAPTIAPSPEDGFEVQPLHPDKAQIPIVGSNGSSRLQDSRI
Assay type: cell-based
How it was run: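 IC50 values derive from four-parameter logistic curves fitted to dose-response data. Uptake of [14C]-glycine measured in scintillation proximity format.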

SMILES	IC50 [nM]
C[C@H](Oc1ccc(C#N)cc1C(=O)N1Cc2cn(C3CCCCC3)nc2C1)C(F)(F)F [Example 402, 3-{2-Cyclohexyl-2H 4H 5H 6H-pyrrolo[3,4-c]pyrazole-5-carbonyl}-4-{[(2S)-1 1 1-trifluoropropan-2-yl]oxy}benzonitrile]	100 to 1000
CC(C)Oc1ccc(S(C)(=O)=O)cc1C(=O)N1Cc2cn(C3CCCCC3)nc2C1 [Example 403, 2-Cyclohexyl-5-[5-methanesulfonyl-2-(propan-2-yloxy)benzoyl]-2H 4H 5H 6H-pyrrolo[3,4-c]pyrazole]	< 100
C[C@H](Oc1ccc(C#N)cc1C(=O)N1Cc2cn(-c3ccnc(C4CC4)c3)nc2C1)C(F)(F)F [Example 404, 3-[2-(2-Cyclopropylpyridin-4-yl)-2H 4H 5H 6H-pyrrolo[3,4-c]pyrazole-5-carbonyl]-4-{[(2S)-1 1 1-trifluoropropan-2-yl]oxy}benzonitrile]	< 100
CC(C)Oc1ccc(C#N)cc1C(=O)N1Cc2cn(-c3ccnc(C4CC4)c3)nc2C1 [Example 405, 3-[2-(2-Cyclopropylpyridin-4-yl)-2H 4H 5H 6H-pyrrolo[3,4-c]pyrazole-5-carbonyl]-4-(propan-2-yloxy)benzonitrile]	< 100
CC(C)Oc1ccc(S(C)(=O)=O)cc1C(=O)N1Cc2cn(C3CCCC3)nc2C1 [Example 406, 2-Cyclopentyl-5-[5-methanesulfonyl-2-(propan-2-yloxy)benzoyl]-2H 4H 5H 6H-pyrrolo[3,4-c]pyrazole]	< 100
CC(C)Oc1ccc(C#N)cc1C(=O)N1Cc2cn(C3CCOCC3)nc2C1 [Example 408, 3-[2-(Oxan-4-yl)-2H 4H 5H 6H-pyrrolo[3,4-c]pyrazole-5-carbonyl]-4-(propan-2-yloxy)benzonitrile]	100 to 1000
C[C@H](Oc1ccc(S(C)(=O)=O)cc1C(=O)N1Cc2cn(CC3CCC3)nc2C1)C(F)(F)F [Example 409]	< 100
CC(C)Oc1ccc(S(C)(=O)=O)cc1C(=O)N1Cc2cn(CC3CCC3)nc2C1 [Example 410, 2-(Cyclobutylmethyl)-5-[5-methanesulfonyl-2-(propan-2-yloxy)benzoyl]-2H 4H 5H 6H-pyrrolo[3,4-c]pyrazole]	< 100
CC(C)Oc1ccc(C#N)cc1C(=O)N1Cc2cn(CC3CCC3)nc2C1 [Example 411, 3-[2-(Cyclobutylmethyl)-2H 4H 5H 6H-pyrrolo[3,4-c]pyrazole-5-carbonyl]-4-(propan-2-yloxy)benzonitrile]	100 to 1000
C[C@H](Oc1ccc(C#N)cc1C(=O)N1Cc2cn(C3CCOCC3)nc2C1)C(F)(F)F [Example 412, 3-[2-(Oxan-4-yl)-2H 4H 5H 6H-pyrrolo[3,4-c]pyrazole-5-carbonyl]-4-{[(2S)-1 1 1-trifluoropropan-2-yl]oxy}benzonitrile]	< 100
C[C@H](Oc1ccc(S(C)(=O)=O)cc1C(=O)N1Cc2cn(CC3CCCC3)nc2C1)C(F)(F)F [Example 413, 2-(Cyclopentylmethyl)-5-(5-methanesulfonyl-2-{[(2S)-1 1 1-trifluoropropan-2-yl]oxy}benzoyl)-2H 4H 5H 6H-pyrrolo[3,4-c]pyrazole]	< 100
C[C@H](Oc1ccc(C#N)cc1C(=O)N1Cc2cn(CC3CCCC3)nc2C1)C(F)(F)F [Example 414, 3-[2-(Cyclopentylmethyl)-2H 4H 5H 6H-pyrrolo[3,4-c]pyrazole-5-carbonyl]-4-{[(2S)-1 1 1-trifluoropropan-2-yl]oxy}benzonitrile]	100 to 1000
CCS(=O)(=O)c1ccc(OC(C)C)c(C(=O)N2Cc3cn(C4CCCC4)nc3C2)c1 [Example 415, 2-Cyclopentyl-5-[5-(ethanesulfonyl)-2-(propan-2-yloxy)benzoyl]-2H 4H 5H 6H-pyrrolo[3,4-c]pyrazole]	< 100
CC[C@H](C)Cn1cc2c(n1)CN(C(=O)c1cc(C#N)ccc1OC(C)C)C2 [Example 416, 3-{2-[(2S)-2-Methylbutyl]-2H 4H 5H 6H-pyrrolo[3,4-c]pyrazole-5-carbonyl}-4-(propan-2-yloxy)benzonitrile]	100 to 1000
CCS(=O)(=O)c1ccc(O[C@@H](C)C(F)(F)F)c(C(=O)N2Cc3cn(C4CCCC4)nc3C2)c1 [Example 417, 2-Cyclopentyl-5-[5-(ethanesulfonyl)-2-{[(2S)-1 1 1-trifluoropropan-2-yl]oxy}benzoyl]-2H 4H 5H 6H-pyrrolo[3,4-c]pyrazole]	< 100
CC[C@H](C)Cn1cc2c(n1)CN(C(=O)c1cc(C#N)ccc1O[C@@H](C)C(F)(F)F)C2 [Example 418, 3-{2-[(2S)-2-Methylbutyl]-2H 4H 5H 6H-pyrrolo[3,4-c]pyrazole-5-carbonyl}-4-{[(2S)-1 1 1-trifluoropropan-2-yl]oxy}benzonitrile]	100 to 1000
C[C@H](Oc1ccc(C#N)cc1C(=O)N1Cc2cn(CC3CCOC3)nc2C1)C(F)(F)F (stereo partly drawn) [Example 419, 3-[2-(Oxolan-3-ylmethyl)-2H 4H 5H 6H-pyrrolo[3,4-c]pyrazole-5-carbonyl]-4-{[(2S)-1 1 1-trifluoropropan-2-yl]oxy}benzonitrile]	100 to 1000
CC(C)Oc1ccc(C#N)cc1C(=O)N1Cc2cn(CC3CCOC3)nc2C1 (stereo not drawn) [Example 420, 3-[2-(Oxolan-3-ylmethyl)-2H 4H 5H 6H-pyrrolo[3,4-c]pyrazole-5-carbonyl]-4-(propan-2-yloxy)benzonitrile]	100 to 1000
C[C@H](Oc1ccc(C#N)cc1C(=O)N1Cc2cnn(-c3ccnnc3)c2C1)C(F)(F)F [Example 421, 3-[1-(Pyridazin-4-yl)-1H 4H 5H 6H-pyrrolo[3,4-c]pyrazole-5-carbonyl]-4-{[(2S)-1 1 1-trifluoropropan-2-yl]oxy}benzonitrile]	100 to 1000
CC(C)Oc1ccc(C#N)cc1C(=O)N1Cc2cn(-c3ccnnc3)nc2C1 [Example 422, 4-(Propan-2-yloxy)-3-[2-(pyridazin-4-yl)-2H 4H 5H 6H-pyrrolo[3,4-c]pyrazole-5-carbonyl]benzonitrile]	100 to 1000

The remaining lines, values ahead:

IC50 [nM]	SMILES
< 100	C[C@H](Oc1ccc(C#N)cc1C(=O)N1Cc2cn(-c3ccnnc3)nc2C1)C(F)(F)F [Example 423, 3-[2-(Pyridazin-4-yl)-2H 4H 5H 6H-pyrrolo[3,4-c]pyrazole-5-carbonyl]-4-{[(2S)-1 1 1-trifluoropropan-2-yl]oxy}benzonitrile]
1000 to 10000	CC(C)Oc1ccc(C#N)cc1C(=O)N1Cc2cn(-c3ccn4ccnc4c3)nc2C1 [Example 424, 3-(2-{Imidazo[1 2-a]pyridin-7-yl}-2H 4H 5H 6H-pyrrolo[3,4-c]pyrazole-5-carbonyl)-4-(propan-2-yloxy)benzonitrile]
100 to 1000	C[C@H](Oc1ccc(C#N)cc1C(=O)N1Cc2cn(-c3ccn4ccnc4c3)nc2C1)C(F)(F)F [Example 425, 3-(2-{Imidazo[1 2-a]pyridin-7-yl}-2H 4H 5H 6H-pyrrolo[3,4-c]pyrazole-5-carbonyl)-4-{[(2S)-1 1 1-trifluoropropan-2-yl]oxy}benzonitrile]
< 100	CS(=O)(=O)c1ccc(-c2cccc(F)c2)c(C(=O)N2Cc3cn(CC4CCC4)nc3C2)c1 [Example 426, 2-(Cyclobutylmethyl)-5-[2-(3-fluorophenyl)-5-methanesulfonylbenzoyl]-2H 4H 5H 6H-pyrrolo[3,4-c]pyrazole]
< 100	CC(C)Cn1cc2c(n1)CN(C(=O)c1cc(S(C)(=O)=O)ccc1-c1cccc(F)c1)C2 [Example 427, 5-[2-(3-Fluorophenyl)-5-methanesulfonylbenzoyl]-2-(2-methylpropyl)-2H 4H 5H 6H-pyrrolo[3,4-c]pyrazole]
< 100	CCS(=O)(=O)c1ccc(N2CCC(F)(F)CC2)c(C(=O)N2Cc3cn(CC4CCC4)nc3C2)c1 [Example 428, 1-{2-[2-(Cyclobutylmethyl)-2H 4H 5H 6H-pyrrolo[3,4-c]pyrazole-5-carbonyl]-4-(ethanesulfonyl)phenyl}-4 4-difluoropiperidine]
< 100	CS(=O)(=O)c1ccc(N2CCC(F)(F)CC2)c(C(=O)N2Cc3cn(C4CCCC4)nc3C2)c1 [Example 430, 1-(2-{2-Cyclopentyl-2H 4H 5H 6H-pyrrolo[3,4-c]pyrazole-5-carbonyl}-4-methanesulfonylphenyl)-4 4-difluoropiperidine]
< 100	CS(=O)(=O)c1ccc(N2CCC(F)(F)CC2)c(C(=O)N2Cc3cn(CC4CCC4)nc3C2)c1 [Example 431, 1-{2-[2-(Cyclobutylmethyl)-2H 4H 5H 6H-pyrrolo[3,4-c]pyrazole-5-carbonyl]-4-methanesulfonylphenyl}-4 4-difluoropiperidine]
< 100	CC(C)Cn1cc2c(n1)CN(C(=O)c1cc(S(C)(=O)=O)ccc1N1CCC(F)(F)CC1)C2 [Example 432, 4 4-Difluoro-1-{4-methanesulfonyl-2-[2-(2-methylpropyl)-2H 4H 5H 6H-pyrrolo[3,4-c]pyrazole-5-carbonyl]phenyl}piperidine]
100 to 1000	CC(C)n1cc2c(n1)CN(C(=O)c1cc(S(C)(=O)=O)ccc1N1CCC(F)(F)CC1)C2 [Example 433, 4 4-Difluoro-1-{4-methanesulfonyl-2-[2-(propan-2-yl)-2H 4H 5H 6H-pyrrolo[3,4-c]pyrazole-5-carbonyl]phenyl}piperidine]
